Source: patent US20210261495A1, “COMPOSITIONS AND METHODS OF USING ITACONIC ACID DERIVATIVES” (ERGON PHARMACEUTICALS, LLC, priority 2018, published 2021)

Test system: C6-IRG1-9 rat glioma cells
Assay: C6-IRG1-9 rat glioma cell proliferation, CyQuant
Assay type: cell-based
Conditions: various concentrations, 48 hrs
Method: Tumor Cell Proliferation Assay. This assay was used to assess the anti-tumor properties of a therapeutic agent in vitro. In a typical proliferation assay, cells were cultured to near confluency in the appropriate media. Subsequently, the cells were trypsinized and plated onto 96-well plates at 2,000 or 5,000 cell per well. The cells were cultured for 48 to 96 hours in the presence or absence of the therapeutic agent. Cell proliferation was then determined using spectrophotometry (MTT assay, BrdU assay) or fluorimetry (Cyquant assay).
Inhibition of C6-IRG1-9 Rat Glioma cell proliferation. C6-IRG1-9 cells are rat C6 glioma cells that have been transfected to overexpress IRG1. Overexpression of IRG1 is maintained by culturing the cells in DMEM media containing 0.55 μg/mL puromycin. For the proliferation assays, the cells were plated onto a 96-well plate at a density of 2,000 cells/well. The cells were allowed to adhere overnight; they were subsequently treated with various concentrations of compounds of Formula (2) for 48 hrs. At the end of the incubation period, the number of cells is assessed using the CyQuant Cell Proliferation kit (Thermo Fisher) according to the manufacturer's instructions. The results, shown in FIG. 3, indicate that compounds of Formula (2) are able to reduce or abrogate growth of C6-IRG1-9 cells. In FIG. 3, cell proliferation is expressed as % Untreated Control, defined as: […]
where t is the number of cells present in a treated well at the end of the incubation period, c is the number of cells present in an untreated well at the end of the incubation period, and s is the initial number of cells in the wells prior to initiation of treatment.

| Compound | proliferation of C6-IRG1-9 rat glioma cells |
| --- | --- |
| CC(C)=C(CC(=O)O)C(=O)O [(3), 2-(propan-2-ylidene)butanedioic acid] | inhibition of proliferation |
| O=C(O)CC(=Cc1ccc(F)cc1)C(=O)O [Compound (5), 2-[(4-fluorophenyl)methylidene]butanedioic acid] | inhibition of proliferation |
| C=CCC(C(=O)O)/C(=C/c1ccc(F)cc1)C(=O)O (stereo not shown) [(7), 2-[(4-flurophenyl)methylidene]-3-(prop-2-ene-1-yl)butanedioic acid] | inhibition of proliferation |
| O=C(O)CC(=Cc1ccccc1)C(=O)O [(4), 2-(phenylmethylidene)butanedioic acid] | inhibition of proliferation |
